According to patent US8426408B2, “Pyrimidine inhibitors of kinases” (AbbVie Inc., priority 2009, dated 2013):

Columns and labels:
Aurora A = target: T1, Aurora A (Homo sapiens, UniProt O14965); test: Aurora A enzyme inhibition (time-resolved fluorescence, STK substrate-2); format: biochemical; details: 1 mM ATP
T1 sequence (O14965 1-403): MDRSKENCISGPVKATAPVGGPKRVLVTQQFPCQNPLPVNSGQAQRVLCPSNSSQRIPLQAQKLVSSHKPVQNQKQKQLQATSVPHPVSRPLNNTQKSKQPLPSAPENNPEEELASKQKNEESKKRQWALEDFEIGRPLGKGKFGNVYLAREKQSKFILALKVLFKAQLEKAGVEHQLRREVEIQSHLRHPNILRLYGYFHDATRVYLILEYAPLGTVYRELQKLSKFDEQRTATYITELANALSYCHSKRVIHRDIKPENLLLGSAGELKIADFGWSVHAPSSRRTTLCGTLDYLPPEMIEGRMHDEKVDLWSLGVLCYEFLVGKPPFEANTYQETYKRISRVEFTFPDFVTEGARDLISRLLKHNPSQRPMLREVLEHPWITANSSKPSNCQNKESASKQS
Method in brief: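 Active enzyme incubated 1 h with biotinylated STK substrate-2, 1 mM ATP and inhibitor in Hepes pH 7.4 with MgCl2, orthovanadate and Triton X-100. EDTA stop; phosphopeptide detected by Eu-cryptate anti-phospho-STK/SA-XL665 TR-FRET (665/615 nm ratio); IC50 by exponential fit.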

Aurora B = target: T2, Aurora B (Homo sapiens, UniProt Q96GD4); test: Aurora B enzyme inhibition (time-resolved fluorescence, histone H3 peptide); format: biochemical; details: 1 mM ATP
T2 construct: Active Aurora B enzyme (recombinant residues 1-344)
T2 sequence (Q96GD4 whole entry, the tested form may be a part): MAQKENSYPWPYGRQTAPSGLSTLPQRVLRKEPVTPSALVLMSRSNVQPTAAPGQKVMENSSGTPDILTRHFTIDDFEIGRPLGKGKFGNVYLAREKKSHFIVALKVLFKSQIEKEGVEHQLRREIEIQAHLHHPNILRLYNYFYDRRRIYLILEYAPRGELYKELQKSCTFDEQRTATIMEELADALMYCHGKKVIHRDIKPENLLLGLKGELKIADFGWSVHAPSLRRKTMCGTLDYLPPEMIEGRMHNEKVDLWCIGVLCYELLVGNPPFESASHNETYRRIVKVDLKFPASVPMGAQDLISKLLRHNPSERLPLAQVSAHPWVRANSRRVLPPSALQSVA
T2 sequence (Q9NQS7 826-918 partner limits assumed): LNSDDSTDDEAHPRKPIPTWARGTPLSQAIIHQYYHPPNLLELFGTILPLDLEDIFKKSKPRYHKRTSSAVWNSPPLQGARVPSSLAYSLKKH
Method in brief: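 Recombinant Aurora B (residues 1-344) with GST-INCENP phosphorylated biotinylated histone H3 (1-21) peptide at 1 mM ATP in HEPES pH 7.4 with MgCl2, orthovanadate and Triton X-100 for 1 h. After EDTA stop, the phosphopeptide was detected by TR-FRET (Eu-cryptate anti-phospho-H3 / SA-APC, 665/615 nm ratio). IC50 from an exponential fit.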

KDR = KDR (Homo sapiens, UniProt P35968); test: KDR HTRF in vitro kinase assay; format: biochemical; parameters: purified enzyme (His6-KDR 789-1354, MW 63 kD); His6 (N); details: 1 mM ATP; read-out: KDR enzyme inhibition data (Ki)
Chain of KDR (P35968 789-1354): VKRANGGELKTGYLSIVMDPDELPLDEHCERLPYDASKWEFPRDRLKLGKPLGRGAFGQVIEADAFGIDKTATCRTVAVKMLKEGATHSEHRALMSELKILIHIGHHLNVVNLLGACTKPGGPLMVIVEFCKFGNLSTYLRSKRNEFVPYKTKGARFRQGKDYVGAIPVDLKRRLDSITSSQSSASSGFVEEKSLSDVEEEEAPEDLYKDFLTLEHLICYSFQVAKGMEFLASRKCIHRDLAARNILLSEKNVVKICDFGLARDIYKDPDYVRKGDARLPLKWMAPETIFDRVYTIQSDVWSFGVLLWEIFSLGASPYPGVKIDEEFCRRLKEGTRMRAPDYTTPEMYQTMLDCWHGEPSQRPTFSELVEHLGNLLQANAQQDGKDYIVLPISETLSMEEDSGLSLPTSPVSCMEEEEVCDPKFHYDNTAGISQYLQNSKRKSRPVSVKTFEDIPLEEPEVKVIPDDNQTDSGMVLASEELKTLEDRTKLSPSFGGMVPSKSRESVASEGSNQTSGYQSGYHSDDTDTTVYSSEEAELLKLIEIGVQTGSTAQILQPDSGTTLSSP
Method in brief: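 His6-KDR 789-1354 (7 ng/well) with 0.5 μM biotinylated peptide substrate and 1 mM ATP in HEPES pH 7.1, MgCl2/MnCl2, 60 min at room temperature. EDTA-quenched, detected by streptavidin-XL-665 plus Eu-kryptate anti-phosphotyrosine HTRF after 3 h; IC50 from 620/665 nm ratio.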

NCI-H1299 cells = test: Induction of polyploidy in H1299; format: cell-based, Human; details: NCI-H1299, 48 hours
Experimental: To determine the induction of polyploidy in H1299 cells, NCI-H1299 were seeded (4K/well) into 96-well culture plates (tissue culture grade, black, flat-clear bottom) and incubated overnight to produce cell-to-plate adherence. Inhibitors at varying concentrations were added into duplicate wells containing cells and culture media (RPMI 1640, 10% fetal calf serum) and incubated at 37 C for 48 hours. The plates were then washed with PBS and the adherent cells fixed by incubating with 3% formalin for 1 hour. After washing four times with PBS, the cells were then stained with Hoechst and subjected to fluorescent (360 i/460e) microscopic high content analysis to determine the effect of inhibitors on nuclear size. Polyploid cells (≧4N) were defined as those having nuclear area>750μ^2. Potency was expressed as the concentration of inhibitor necessary to induce polyploidy in 15% of cells (EC15) and was calculated from least squares analysis of the log dose-response.

Ki (Aurora A) [nM] | Ki (Aurora B) [nM] | Ki (KDR) [nM] | Compound | EC15 (concentration of inhibitor necessary to induce polyploidy in 15% of cells) (NCI-H1299 cells)
100 to 1000 | < 100 | 1000 to 5000 | NC(=O)[C@@H]1[C@H]2CC[C@H](C2)[C@@H]1Nc1nc(Nc2cnn(CCO)c2)ncc1F.NC(=O)[C@H]1[C@@H]2CC[C@@H](C2)[C@H]1Nc1nc(Nc2cnn(CCO)c2)ncc1F (mixture of isomers) [Example 14, (1R,2S,3R,4S)-3-[(5-fluoro-2-{[1-(2-hydroxyethyl)-1H-pyrazol-4-yl]amino}pyrimidin-4-yl)amino]bicyclo[2.2.1]heptane-2-carboxamide and (1S,2R,3S,4R)-3-[(5-fluoro-2-{[1-(2-hydroxyethyl)-1H-pyrazol-4-yl]amino}pyrimidin-4-yl)amino]bicyclo[2.2.1]heptane-2-carboxamide] | B (“B” represents an EC15 of between 0.1 μM and 1 μM)
100 to 1000 | < 100 | 100 to 1000 | Cc1cnc(Nc2cnn(C)c2)nc1N[C@@H]1[C@H](C(N)=O)[C@H]2C=C[C@@H]1C2.Cc1cnc(Nc2cnn(C)c2)nc1N[C@H]1[C@@H](C(N)=O)[C@@H]2C=C[C@H]1C2 (mixture of isomers) [Example 17, (1S,2S,3R,4R)-3-({5-methyl-2-[(1-methyl-1H-pyrazol-4-yl)amino]pyrimidin-4-yl}amino)bicyclo[2.2.1]hept-5-ene-2-carboxamide and (1R,2R,3S,4S)-3-({5-methyl-2-[(1-methyl-1H-pyrazol-4-yl)amino]pyrimidin-4-yl}amino)bicyclo[2.2.1]hept-5-ene-2-carboxamide] | A (“A” represents an EC15 of less than 0.1 μM)
100 to 1000 | < 100 | 100 to 1000 | Cn1cc(Nc2ncc(C(F)(F)F)c(N[C@@H]3C[C@H]4CC[C@@H]3C4)n2)cn1.Cn1cc(Nc2ncc(C(F)(F)F)c(N[C@H]3C[C@@H]4CC[C@H]3C4)n2)cn1 (mixture of isomers) [Example 23, N^4-[(1S,2S,4R)-bicyclo[2.2.1]hept-2-yl]-N^2-(1-methyl-1H-pyrazol-4-yl)-5-(trifluoromethyl)pyrimidine-2,4-diamine and N^4-[(1R,2R,4S)-bicyclo[2.2.1]hept-2-yl]-N^2-(1-methyl-1H-pyrazol-4-yl)-5-(trifluoromethyl)pyrimidine-2,4-diamine] | B (“B” represents an EC15 of between 0.1 μM and 1 μM)
1000 to 5000 | < 100 | 1000 to 5000 | Cn1cc(Nc2ncc(C(F)(F)F)c(N[C@@H]3CC=CC[C@@H]3C(N)=O)n2)cn1.Cn1cc(Nc2ncc(C(F)(F)F)c(N[C@H]3CC=CC[C@H]3C(N)=O)n2)cn1 (mixture of isomers) [Example 26, (1S,6R)-6-{[2-[(1-methyl-1H-pyrazol-4-yl)amino]-5-(trifluoromethyl)pyrimidin-4-yl]amino}cyclohex-3-ene-1-carboxamide and (1R,6S)-6-{[2-[(1-methyl-1H-pyrazol-4-yl)amino]-5-(trifluoromethyl)pyrimidin-4-yl]amino}cyclohex-3-ene-1-carboxamide] | A (“A” represents an EC15 of less than 0.1 μM)

Further lines, the compound ahead of its results:

Compound | Ki (Aurora A) [nM] | Ki (Aurora B) [nM] | Ki (KDR) [nM] | EC15 (concentration of inhibitor necessary to induce polyploidy in 15% of cells) (NCI-H1299 cells)
Cc1cnc(Nc2cnn(CCO)c2)nc1N[C@@H]1[C@H](C(N)=O)[C@H]2C=C[C@@H]1C2.Cc1cnc(Nc2cnn(CCO)c2)nc1N[C@H]1[C@@H](C(N)=O)[C@@H]2C=C[C@H]1C2 (mixture of isomers) [Example 18, (1S,2S,3R,4R)-3-[(2-{[1-(2-hydroxyethyl)-1H-pyrazol-4-yl]amino}-5-methylpyrimidin-4-yl)amino]bicyclo[2.2.1]hept-5-ene-2-carboxamide and (1R,2R,3S,4S)-3-[(2-{[1-(2-hydroxyethyl)-1H-pyrazol-4-yl]amino}-5-methylpyrimidin-4-yl)amino]bicyclo[2.2.1]hept-5-ene-2-carboxamide] | 100 to 1000 | 100 to 1000 | 100 to 1000 | A (“A” represents an EC15 of less than 0.1 μM)
Cn1cc(Nc2ncc(C(F)(F)F)c(N[C@@H]3CCC[C@@H]3C(N)=O)n2)cn1.Cn1cc(Nc2ncc(C(F)(F)F)c(N[C@H]3CCC[C@H]3C(N)=O)n2)cn1 (mixture of isomers) [Example 25, (1S,2R)-2-{[2-[(1-methyl-1H-pyrazol-4-yl)amino]-5-(trifluoromethyl)pyrimidin-4-yl]amino}cyclopentanecarboxamide and (1R,2S)-2-{[2-[(1-methyl-1H-pyrazol-4-yl)amino]-5-(trifluoromethyl)pyrimidin-4-yl]amino}cyclopentanecarboxamide] | 100 to 1000 | < 100 | 100 to 1000 | A (“A” represents an EC15 of less than 0.1 μM)
Cn1cc(Nc2ncc(Cl)c(N[C@@H]3[C@H](C(N)=O)[C@@H]4C=C[C@H]3C4)n2)cn1.Cn1cc(Nc2ncc(Cl)c(N[C@H]3[C@@H](C(N)=O)[C@H]4C=C[C@@H]3C4)n2)cn1 (mixture of isomers) [Example 120, (1S,2R,3S,4R)-3-({5-chloro-2-[(1-methyl-1H-pyrazol-4-yl)amino]pyrimidin-4-yl}amino)bicyclo[2.2.1]hept-5-ene-2-carboxamide and (1R,2S,3R,4S)-3-({5-chloro-2-[(1-methyl-1H-pyrazol-4-yl)amino]pyrimidin-4-yl}amino)bicyclo[2.2.1]hept-5-ene-2-carboxamide] | < 100 | < 100 | < 100 | B (“B” represents an EC15 of between 0.1 μM and 1 μM)
(1S,2S,3R,4R)-3-({5-fluoro-2-[(1-methyl-1H-pyrazol-4-yl)amino]pyrimidin-4-yl}amino)bicyclo[2.2.1]hept-5-ene-2-carboxamide and (1R,2R,3S,4S)-3-({5-fluoro-2-[(1-methyl-1H-pyrazol-4-yl)amino]pyrimidin-4-yl}amino)bicyclo[2.2.1]hept-5-ene-2-carboxamide [Example 1] | < 100 | < 100 | 100 to 1000 | B (“B” represents an EC15 of between 0.1 μM and 1 μM)
